The text below walks through data of patent US20190345138A1, “HETEROCYCLIC AMIDES AS KINASE INHIBITORS” (GlaxoSmithKline Intellectual Property Development Limited, priority 2016, published 2019).

Values joined by “and” are separate entries in the source; they are usually repeats but may differ in a detail not shown here. Equal values may be shown once.

The test system of assay [1] is human monocytic leukemia U937 cells. Kind of assay: necroptosis assay in U937 cells. The assay is classed as cell-based. The following applies: Homo sapiens, U-937, U937 cells; viability by cellular ATP (Cell Titer-Glo); read-out: pIC50, inhibited necrosis in U937 cells (converted). As for the experimental part:
The efficacy of RIP1 inhibitors can be tested […] in vitro using a human monocytic leukemia U937 or mouse L929 fibrosarcoma cells in a necroptosis assay. As determined using the method described in S. He et al., Cell, 137(6):1100-1111 (2009) and International Patent Appln. No. PCT/IB2014/059004, now, International Patent Appln. Pub.
Viability was measured by quantitating cellular levels of ATP using the Cell Titer-Glo kit. All data are means±standard deviation of the mean.

In assay [2] the target is T1, RIP1 kinase (Homo sapiens, UniProt Q13546).
T1 sequence (Q13546 1-375 limits assumed): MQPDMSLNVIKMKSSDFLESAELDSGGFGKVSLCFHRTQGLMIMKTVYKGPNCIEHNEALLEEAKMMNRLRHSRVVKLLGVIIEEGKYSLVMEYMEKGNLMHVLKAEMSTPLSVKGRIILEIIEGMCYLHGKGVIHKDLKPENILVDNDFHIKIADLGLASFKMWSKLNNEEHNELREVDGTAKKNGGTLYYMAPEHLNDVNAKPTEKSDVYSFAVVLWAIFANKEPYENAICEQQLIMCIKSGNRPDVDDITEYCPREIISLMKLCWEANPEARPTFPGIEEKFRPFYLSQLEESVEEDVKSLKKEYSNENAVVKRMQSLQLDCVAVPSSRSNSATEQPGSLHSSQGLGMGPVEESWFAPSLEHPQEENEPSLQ
In words: fluorescent polarization based binding assay. Conditions: mean of a minimum of 2 experiments. The text has this:
A fluorescent polarization based binding assay was used to assess the activity of the compounds of this invention, the details of which are disclosed in International Patent Appln. No. PCT/IB2014/059004, now, International Patent Appln. Pub.

As for `O=C(O)c1ncnc(N2CCC(C(=O)N3N=CC[C@H]3c3cc(F)cc(F)c3)CC2)c1F` [Example 164, (S)-6-(4-(5-(3,5-difluorophenyl)-4,5-dihydro-1H-pyrazole-1-carbonyl)piperidin-1-yl)-5-fluoropyrimidine-4-carboxylic acid], the IC50 is 1 to 100 nM in assay [1] and 1 to 31.6 nM in assay [2].

In the case of `N#Cc1cnc(N2CCC(C(=O)N3N=CC[C@H]3c3ccccc3)CC2)o1` [Example 138, (S)-2-(4-(5-phenyl-4,5-dihydro-1H-pyrazole-1-carbonyl)piperidin-1-yl)oxazole-5-carbonitrile], the IC50 was 1 to 100 nM in assay [1]; 1 to 31.6 nM and 1 to 10 nM in assay [2].

Regarding `COc1cnc(N2CCC(C(=O)N3N=CCC3c3ccccc3)CC2)nc1` (racemic) [Example 7, (1-(5-methoxypyrimidin-2-yl)piperidin-4-yl)(5-phenyl-4,5-dihydro-1H-pyrazol-1-yl)methanone], the IC50 was 1 to 100 nM in assay [1] and 1 to 31.6 nM in assay [2].

Take `COc1cc(N2CCC(C(=O)N3N=CC[C@H]3c3cc(F)ccc3F)CC2)ncn1` [Example 105, (S)-(5-(2,5-difluorophenyl)-4,5-dihydro-1H-pyrazol-1-yl)(1-(6-methoxypyrimidin-4-yl)piperidin-4-yl)methanone]: the IC50 was 1 to 100 nM in assay [1]; 1 to 31.6 nM and 1 to 10 nM in assay [2].

`CNc1nccc(N2CCC(C(=O)N3N=CC[C@H]3c3ccccc3)CC2)n1` [Example 15, (S)-(1-(2-(methylamino)pyrimidin-4-yl)piperidin-4-yl)(5-phenyl-4,5-dihydro-1H-pyrazol-1-yl)methanone]: the IC50 in assay [1] was 1 to 100 nM; in assay [2] it was 1 to 31.6 nM and 1 to 10 nM.

Consider `N#Cc1cccc([C@@H]2CC=NN2C(=O)C2CCN(c3ccc4nccn4n3)CC2)c1` [Example 73, (S)-3-(1-(1-(imidazo[1,2-b]pyridazin-6-yl)piperidine-4-carbonyl)-4,5-dihydro-1H-pyrazol-5-yl)benzonitrile], for which the IC50 in assay [1] is 1 to 100 nM; in assay [2], 1 to 31.6 nM.

For the molecule `COc1cc(N2CCC(C(=O)N3N=CC[C@H]3c3ccccc3)CC2)ncn1` [Example 12, (S)-(1-(6-methoxypyrimidin-4-yl)piperidin-4-yl)(5-phenyl-4,5-dihydro-1H-pyrazol-1-yl)methanone], the IC50 was 1 to 100 nM in assay [1]; 1 to 31.6 nM and 1 to 10 nM in assay [2].

For the molecule `CN1CCN(C(=O)c2ccnc(N3CCC(C(=O)N4N=CC[C@H]4c4ccccc4)CC3)n2)CC1` [Example 141, (S)-(4-methylpiperazin-1-yl)(2-(4-(5-phenyl-4,5-dihydro-1H-pyrazole-1-carbonyl)piperidin-1-yl)pyrimidin-4-yl)methanone], the figures for the IC50 in assay [1] and in assay [2] were 1 to 100 nM and 1 to 31.6 nM, respectively.

In the case of `N#Cc1coc(N2CCC(C(=O)N3N=CC[C@H]3c3ccccc3)CC2)n1` [Example 137, (S)-2-(4-(5-phenyl-4,5-dihydro-2H-pyrazole-1-carbonyl)piperidin-1-yl)oxazole-4-carbonitrile], the IC50 in assay [1] was 1 to 100 nM; in assay [2] it was 1 to 31.6 nM and 1 to 10 nM.

Take `N#Cc1nccc(N2CCC(C(=O)N3N=CC[C@H]3c3cncc(F)c3)CC2)n1` [Example 115, (S)-4-(4-(5-(5-fluoropyridin-3-yl)-4,5-dihydro-1H-pyrazole-1-carbonyl)piperidin-1-yl)pyrimidine-2-carbonitrile]: the IC50 is 1 to 100 nM in assay [1] and 1 to 31.6 nM in assay [2].

Turning to `COc1ccc(N2CCC(C(=O)N3N=CC[C@H]3c3ccccc3)CC2)nn1` [Example 49, (S)-(1-(6-methoxypyridazin-3-yl)piperidin-4-yl)(5-phenyl-4,5-dihydro-1H-pyrazol-1-yl)methanone], the IC50 was 1 to 100 nM in assay [1] and 1 to 31.6 nM in assay [2].

As to `Nc1nccc(N2CCC(C(=O)N3N=CC[C@H]3c3cc(F)cc(F)c3)CC2)n1` [Example 84, (S)-(1-(2-aminopyrimidin-4-yl)piperidin-4-yl)(5-(3,5-difluorophenyl)-4,5-dihydro-1H-pyrazol-1-yl)methanone], the IC50 is 1 to 100 nM in assay [1] and 1 to 31.6 nM in assay [2].
